Where “and” joins values, the source holds several entries; their conditions need not be identical. Equal values may be shown once. Marks after values point to notes of the source that are not given here.
Legend:
[1] = Emission spectra and fluorescence quantum yield; assay type: physicochemical
Method: (§1) Absorption spectra were recorded with a Varian Cary 4000 UV-Vis double-beam spectrophotometer (Agilent Technologies, USA). For the determination of the absorption spectra, quartz cells with a 1 cm path length were used. Emission spectra and fluorescence quantum yield were obtained on a Quantaurus-QY Absolute PL quantum yield spectrometer C11347 (Hamamatsu Photonics, Japan) or on a Varian Cary Eclipse fluorescence spectrometer (Agilent Technologies, USA).

[2] = Absorption spectroscopy (UV/Vis); assay type: physicochemical
Method: as §1

[3] = test system: vimentin-HaloTag fusion protein in a living HeLa cell; test: Confocal and STED imaging of vimentin-HaloTag in living cells; assay type: cell-based; set-up: key to verified as a label in STED microscopy: verified as a label in super-resolution microscopy based on stimulated emission depletion (STED with 775 nm STED laser)
Method: (§2) STED and confocal counterpart images were acquired using the commercially available two-color STED 775 quad scanning microscope from Abberior Instruments (Gottingen, Germany) equipped with an Olympus IX83 microscope stand and an Olympus UplanSApo 100×/1.4 OIL objective. Dyes were excited respective their excitation; the STED laser was pulsed at 775 nm.
(§3) For these experiments, STED optical microscopy was performed as indicated above.
The vimentin-HaloTag was labeled with 16-Halo (1 μM for 20 min at growth conditions, 10 min wash) and excited using a pulsed 594 nm laser. Fluorescence was detected in both available detection channels (605-625 nm, 655-715nm) and summed up for the final images. Scale bar: 4 μm; pixel dwell time: 10 μs; pixel size: 20 nm for both the STED and the confocal image. Each line was scanned four times, and the counts were accumulated.

Fluorescence lifetime = assay type: physicochemical
[4] = test system: tubulin filaments in a methanol-fixed Vero cell; test: Confocal and STED imaging of immunolabelled tubulin filaments; assay type: cell-based; set-up: key to verified as a label in STED microscopy: verified as a label in super-resolution microscopy based on stimulated emission depletion (STED with 775 nm STED laser)
Method: as §2, §3
Tubulin was marked using a mouse monoclonal primary antibody against alpha-tubulin together with secondary antibody detection (sheep-anti-mouse conjugated with the dye 23-NHS). 23 was excited using a pulsed 485 nm laser. Fluorescence was detected in both available detection channels (605-625 nm, 655-715nm) and summed up for the final images. Scale bar: 4 μm; pixel dwell time: 10 μs; pixel size: 25 nm for both the STED and the confocal image. Each line in the STED channel was scanned twice, and the counts were accumulated.

Question: With CCN(CC)CC.CN(CCCCCC(=O)[O-])C(=O)CCP(=O)(O)c1c2ccc(N(C)C)cc2[o+]c2cc(N(C)C)ccc12 [Compound 16, Triethylammonium 6-[3-[[3,6-bis(dimethylamino)-9H-xanthenylium-9-yl]oxidophosphoryl]-N-methylpropanamido]hexanoate] as the molecule, how does the Emission max. ([1]; pH 7.4) read?
Answer: 636 nm and 636 ^ (0.30)^b nm

Question: And the Stokes shift ([1]; pH 7.4)?
Answer: 33^b nm

Question: And the “ε at absorption max.” value ([2]; pH 7.4)?
Answer: 10750 M⁻¹ cm⁻¹

Question: What about the “verified as a label in STED microscopy” value ([3]; STED with 775 nm STED laser) of the same molecule?
Answer: good^f

Question: For CN(C)c1ccc2c(P(=O)([O-])CCC(=O)NCCOCCOCCCCCCCl)c3ccc(=[N+](C)C)cc-3oc2c1 [Compound 16-Halo, 3-[[2[2-(6-chlorohexyloxy)ethoxy]ethyl]amino]-3-oxopropyl[6-(dimethylamino)-3-(dimethyliminio)-3H-xanthen-9-yl]phosphinate], which “labelling of vimentin-HaloTag” value ([3]; 1 μM for 20 min at growth conditions, 10 min wash, excitation 594 nm) is on record?
Answer: labeled

Question: With COP(=O)([c+]1c2ccc(N(C)C)cc2sc2cc(N(C)C)ccc21)N(C(C)C)C(C)C.O=C([O-])C(F)(F)F (stereo not shown) [Compound 21, 9-[(Diisopropylamino)(methoxy)phosphoryl]-3,6-bis(dimethylamino)-9H-thioxanthen-9-ylium trifluoroacetate] as the molecule, how does the Emission max. ([1]; in acetonitrile) read?
Answer: 728 nm

Question: What about the “QY (fluorescence quantum yield, Φfl)” value ([1]; in acetonitrile) of the same molecule?
Answer: 0.10

Question: And the Stokes shift ([1]; in acetonitrile)?
Answer: 74^a nm

Question: And the Stability (Stability of the dyes)?
Answer: moderate

Question: What about the fluorescence lifetime (Fluorescence lifetime; in acetonitrile) of the same molecule?
Answer: 0.77 ns

Question: What about the Absorption max. ([2]; in acetonitrile) of the same molecule?
Answer: 654 nm

Question: What about the “ε at absorption max.” value ([2]; in acetonitrile) of the same molecule?
Answer: 64000 M⁻¹ cm⁻¹

Question: What does the source list for CN(C)c1ccc2c([PH](=O)O)c3ccc(N(C)C)cc3[n+](CCCC(=O)O)c2c1.O=C([O-])C(F)(F)F [Compound 23, 10-(3-Carboxypropyl)-3,6-bis(dimethylamino)-9-(hydroxyhydrophosphoryl)acridinium trifluoroacetate]?
Answer: QY (fluorescence quantum yield, Φfl) ([1]; in aq. PBS, pH 7.4): 0.14 and 0.10; Emission max. ([1]; in methanol): 579 nm; QY (fluorescence quantum yield, Φfl) ([1]; in methanol): 0.75; fluorescence lifetime (Fluorescence lifetime; in aq. PBS, pH 7.4): 1.36 ns; Absorption max. ([2]; in aq. PBS, pH 7.4): 535 nm; ε at absorption max. ([2]; in aq. PBS, pH 7.4): 38000 M⁻¹ cm⁻¹; Absorption max. ([2]; in methanol): 527 nm; ε at absorption max. ([2]; in methanol): 67000 M⁻¹ cm⁻¹; verified as a label in STED microscopy ([4]; STED with 775 nm STED laser): f

Question: For CN(C)c1ccc2c([PH](=O)[O-])c3ccc(N(C)C)cc3[n+](CCCC(=O)ON3C(=O)CCC3=O)c2c1 [Compound 23-NHS, [10-(3-Carboxypropyl)-3,6-bis(dimethylamino)acridinium-9-yl]phosphinate NHS ester], which “labelling of tubulin via secondary antibody conjugate” value ([4]; sheep-anti-mouse antibody conjugated with the dye, excitation 485 nm) is on record?
Answer: marked

Reference: patent publication US10174202B2, “Dyes with phosphinic acid, phosphinate, phosphonate and phosphonamidate substituents as auxochromic groups and methods for preparing the same” (Max-Planck-Gesellschaft zur Foerderung der Wissenschaften …, priority 2017, dated 2019)
